Data set [1] deals with 3T3-L1. The data set is described as follows: Induction of 2-NBDG uptake in differentiated mouse 3T3L1 cells after 1 hr by fluorescence microscopic method. Format: functional, cell-based.
The subject of data set [2] is C2C12. The data set is described as follows: Activation of AMPKalpha in mouse C2C12 cells assessed as upregulation of ACC-phosphorylation at 20 uM after 1 hr by Western blot analysis. Format: cell-based.
The subject of data set [3] is C2C12. Description: Induction of AMPKalpha phosphorylation at Thr-172 residue in mouse C2C12 cells at 20 uM after 1 hr by Western blot analysis. Format: cell-based. A general note: A western blot detects proteins with antibodies after separation by electrophoresis.
A further data set is filed under the species Mus musculus. The data set is described as follows: Activation of AMPK signaling pathway in mouse 3T3L1 cells assessed as induction of GLUT4 translocation at 20 uM after 24 hrs by Western blot analysis. Format: cell-based.
Data set [4] concerns C2C12. The data set is described as follows: Cytotoxicity against mouse C2C12 cells at 40 uM after 24 hrs by MTT assay. Format: cell-based. The following applies: c2c12, 24 h. For orientation: Tetrazolium dyes change colour on reduction, which living cells bring about.
For data set [5], the system named is 3T3-L1. Description: Cytotoxicity against mouse 3T3L1 cells at 40 uM after 24 hrs by MTT assay. Format: cell-based. The following applies: 3t3-l1, 24 h.
The subject of data set [6] is 3T3-L1. The data set is described as follows: Induction of 2-NBDG uptake in differentiated mouse 3T3L1 cells at 20 uM after 1 hr by fluorescence microscopic method. Format: functional, cell-based.
Data set [7] has as its system 3T3-L1. The data set is described as follows: Induction of 2-NBDG uptake in differentiated mouse 3T3L1 cells at 10 uM after 1 hr by fluorescence microscopic method. Format: functional, cell-based.
The subject of data set [8] is 3T3-L1. The data set is described as follows: Cytotoxicity against mouse 3T3L1 cells at 10 to 30 uM after 24 hrs by MTT assay. As to conditions: 3t3-l1, 24 h. Format: cell-based.
Data set [9] relates to C2C12. Description: Induction of AMPKalpha phosphorylation at Thr-172 residue in mouse C2C12 cells at 10 uM after 1 hr by Western blot analysis. Format: cell-based.
In data set [10] the test system is C2C12. The data set is described as follows: Cytotoxicity against mouse C2C12 cells at 10 uM after 24 hrs by MTT assay. Format: cell-based. As to conditions: c2c12, 24 h.

Calls of active or inactive are those of the source. The calls are words filed in the database; no cut-off is given here.

On to `CC(C)(O)CC(=O)C[C@](C)(O)[C@H]1CC[C@]2(C)[C@@H]1C(=O)C[C@@H]1[C@@](C)(CCC(=O)O)[C@@H](C(C)(C)O)CC[C@]12C`, for which the Activity entry was “Dose-dependent effect” in the data set with 3T3-L1 [1], “Non-Toxic” in the data set with C2C12 [4] and “Non-Toxic” in the data set on 3T3-L1 [5]. Also, the outcome with C2C12 [2], in the data set on C2C12 [3] and in the data set filed under Mus musculus was Active.

Consider `CC(C)=CC(=O)C[C@](C)(O)[C@H]1CC[C@]2(C)[C@@H]1C(=O)C[C@@H]1[C@@](C)(CCC(=O)O)[C@@H](C(C)(C)O)CC[C@]12C`, for which the Activity result with 3T3-L1 [1] is “Dose-dependent effect”; with C2C12 [4], “Non-Toxic”; in the data set on 3T3-L1 [5], “Non-Toxic”. For the same molecule, the result in the data set on C2C12 [2], in the data set with C2C12 [3] and in the data set filed under Mus musculus was Active.

For `C[C@@H]1O[C@@H](OC[C@H]2O[C@@H](O[C@H]3CC[C@]4(C)[C@H]5CC(=O)[C@@H]6[C@@H]([C@@](C)(O)CC(=O)CC(C)(C)O)CC[C@@]6(C)[C@]5(C)CC[C@H]4C3(C)C)[C@H](O[C@@H]3O[C@@H](C)[C@H](O)[C@@H](O)[C@H]3O)[C@@H](O[C@@H]3O[C@@H](C)[C@H](O)[C@@H](O)[C@H]3O)[C@H]2O)[C@H](O)[C@H](O)[C@H]1O`, in the data set on 3T3-L1 [6], the outcome was Active. Besides, in the data set on C2C12 [3], the result was inactive. In addition, the Activity entry in the data set on C2C12 [4] and with 3T3-L1 [5] was “Non-Toxic” throughout.

For the molecule `C[C@@H]1O[C@@H](OC[C@H]2O[C@@H](O[C@H]3CC[C@]4(C)[C@H]5CC(=O)[C@@H]6[C@@H]([C@@](C)(O)C/C=C/C(C)(C)O)CC[C@@]6(C)[C@]5(C)CC[C@H]4C3(C)C)[C@H](O[C@@H]3O[C@@H](C)[C@H](O)[C@@H](O)[C@H]3O)[C@@H](O[C@@H]3O[C@@H](C)[C@H](O)[C@@H](O)[C@H]3O)[C@H]2O)[C@H](O)[C@H](O)[C@H]1O`, in the data set on 3T3-L1 [6], the result was Active. Further, the outcome in the data set with C2C12 [3] was inactive. In addition, the Activity result with C2C12 [4] and with 3T3-L1 [5] was “Non-Toxic” each time.

`CC(=O)[C@H]1CC[C@]2(C)[C@@H]1C(=O)C[C@@H]1[C@@](C)(CCC(=O)O)[C@@H](C(C)(C)O)CC[C@]12C`: the outcome with 3T3-L1 [6] and in the data set with C2C12 [3] was Active. Further, the Activity result in the data set with C2C12 [4] and in the data set on 3T3-L1 [5] was “Non-Toxic” each time.

`CC(C)=CCC[C@](C)(O)[C@H]1CC[C@]2(C)[C@@H]1C(=O)C[C@@H]1[C@@]3(C)CC[C@H](O[C@@H]4O[C@H](CO)[C@@H](O)[C@H](O)[C@H]4O[C@@H]4O[C@@H](C)[C@H](O)[C@@H](O)[C@H]4O)C(C)(C)[C@@H]3CC[C@]12C`: the outcome with 3T3-L1 [7] and in the data set on C2C12 [9] was Active. Further, the Activity result in the data set with 3T3-L1 [8] is “Non-Toxic”; with C2C12 [10], “Non-Toxic”; in the data set on C2C12 [4], “Toxic”; with 3T3-L1 [5], “Toxic”.

Turning to `CC(=O)[C@H]1CC[C@]2(C)[C@@H]1C(=O)C[C@@H]1[C@@]3(C)CC[C@H](O[C@@H]4O[C@H](CO[C@@H]5O[C@@H](C)[C@H](O)[C@@H](O)[C@H]5O)[C@H](O)[C@H](O[C@@H]5O[C@@H](C)[C@H](O)[C@@H](O)[C@H]5O)[C@H]4O[C@@H]4O[C@@H](C)[C@H](O)[C@@H](O)[C@H]4O)C(C)(C)[C@@H]3CC[C@]12C`, the result in the data set on 3T3-L1 [6] and in the data set with C2C12 [3] was Active. The Activity result with C2C12 [4] and in the data set with 3T3-L1 [5] was “Non-Toxic” each time.

Turning to `CC(C)=CC(=O)/C=C(/C)[C@H]1CC[C@]2(C)[C@@H]1C(=O)C[C@@H]1[C@@]3(C)CC[C@H](O[C@@H]4O[C@H](CO[C@@H]5O[C@@H](C)[C@H](O)[C@@H](O)[C@H]5O)[C@H](O)[C@H](O[C@@H]5O[C@@H](C)[C@H](O)[C@@H](O)[C@H]5O)[C@H]4O[C@@H]4O[C@@H](C)[C@H](O)[C@@H](O)[C@H]4O)C(C)(C)[C@@H]3CC[C@]12C`, the result with 3T3-L1 [6] was Active. In addition, the result in the data set on C2C12 [3] was inactive. The Activity result in the data set with C2C12 [4] and with 3T3-L1 [5] was “Non-Toxic” each time.

Take `C[C@@H]1O[C@@H](O[C@H]2[C@H](O[C@H]3CC[C@]4(C)[C@H]5CC(=O)[C@@H]6[C@@H]([C@@](C)(O)C/C=C/C(C)(C)O)CC[C@@]6(C)[C@]5(C)CC[C@H]4C3(C)C)O[C@H](CO)[C@H](O)[C@@H]2O[C@@H]2O[C@@H](C)[C@H](O)[C@@H](O)[C@H]2O)[C@H](O)[C@H](O)[C@H]1O`: the Activity result with 3T3-L1 [1] is “Dose-dependent effect”; in the data set on C2C12 [4], “Non-Toxic”; in the data set with 3T3-L1 [5], “Non-Toxic”. Also, the result in the data set on C2C12 [3] and in the data set listed under Mus musculus was Active.

`CC(=O)[C@H]1CC[C@]2(C)[C@@H]1C(=O)C[C@@H]1[C@@]3(C)CC[C@H](O[C@@H]4O[C@H](CO)[C@H](O)[C@H](O[C@@H]5O[C@@H](C)[C@H](O)[C@@H](O)[C@H]5O)[C@H]4O[C@@H]4O[C@@H](C)[C@H](O)[C@@H](O)[C@H]4O)C(C)(C)[C@@H]3CC[C@]12C`: the Activity entry was “Dose-dependent effect” in the data set with 3T3-L1 [1], “Non-Toxic” in the data set on C2C12 [4] and “Non-Toxic” in the data set on 3T3-L1 [5]. Further, the result with C2C12 [2], in the data set with C2C12 [3] and in the data set filed under Mus musculus was Active.

For the origin of these results see ChEMBL document CHEMBL4266035, “Insulin Mimetic Activity of 3,4- Seco and Hexanordammarane Triterpenoids Isolated from Gynostemma longipes” (J Nat Prod, 2018).
